Measured values reported in patent US20250144067A1, “PERSONALIZED STARVATION THERAPY FOR CANCER” (Faeth Therapeutics, Inc., priority 2021, published 2025).

Legend:
[1] = system: NCI-H292 lung cancer cells; assay: FDA drug screening, complete media vs cholesterol-free media without statin (TABLE 1); assay type: cell-based, human
[2] = system: NCI-H292 lung cancer cells; assay: FDA drug screening, complete media vs cholesterol-free media with simvastatin (TABLE 2); assay type: cell-based, human; conditions: for Cholesterol-free media + simvastatin (0.04 μM) / Complete Media: NCI-H292 cells
[3] = NCI-H292 cells, cholesterol-free media without statin, FDA drug library screen
[4] = NCI-H292 cells, complete media, FDA drug library screen
[5] = drug in cholesterol-free media with simvastatin 0.04 μM
[6] = complete media vs cholesterol-free media + simvastatin (0.04 μM), >0 enhanced anti-cancer activity, about 0 neutral, <0 antagonist
[7] = FDA library drug in cholesterol-free media with simvastatin 0.04 μM
[8] = FDA library drug in complete media
[9] = NCI-H292 cells, cholesterol-free media without statin
[10] = complete vs cholesterol-free media, greater than 0 enhanced anti-cancer activity, about 0 neutral, below 0 antagonists
[11] = Complete minus Cholesterol-free, […]
[12] = NCI-H292 cells, FDA drug library screen, cholesterol-free media without statin
[13] = NCI-H292 cells, FDA drug library screen, complete media
[14] = cholesterol-free media with simvastatin 0.04 μM, FDA drug library screen (TABLE 2)
[15] = complete media, FDA drug library screen (TABLE 2)
[16] = Complete minus Cholesterol-free, greater than 0 enhanced anti-cancer activity, about 0 neutral, below 0 antagonist
[17] = complete vs cholesterol-free media, >0 enhanced anti-cancer activity, about 0 neutral, <0 antagonist
[18] = complete media vs cholesterol-free media + simvastatin (0.04 μM), […]

## CO/N=C(\C(=O)N[C@@H]1C(=O)N2C(C(=O)O)=CCS[C@H]12)c1csc(N)n1 [Ceftizoxime]
[1]; Complete minus Cholesterol-free, >0 enhanced anti-cancer activity, about 0 neutral, <0 antagonist
  Difference: 0.03
[1]; [3]
  Cholesterol-free: 1.031
[1]; [4]
  Complete: 1.057
[2]; [5]
  Cholesterol-free media + simvastatin (0.04 μM): 1.55
[2]; drug in complete media
  Complete Media: 1.371
[2]; [6]
  Difference: −0.18

## NC(=O)NO [Hydroxyurea]
[1]; Complete minus Cholesterol-free, greater than 0 enhanced anti-cancer activity, about 0 neutral, below 0 antagonists
  Difference: −0.79
[1]; NCI-H292 cells in cholesterol-free media without statin
  Cholesterol-free: 1.72
[1]; NCI-H292 cells in complete media
  Complete: 0.9327
[2]; [7]
  Cholesterol-free media + simvastatin (0.04 μM): 1.418
[2]; [8]
  Complete Media: 1.131
[2]; [6]
  Difference: −0.29

## O=C(O)P(=O)(O)O [Foscarnet (sodium)]
[1]; [9]
  Cholesterol-free: 1.261
[1]; NCI-H292 cells, complete media
  Complete: 0.9196
[1]; [10]
  Difference: −0.34
[2]; [5]
  Cholesterol-free media + simvastatin (0.04 μM): 1.224
[2]; drug in complete media
  Complete Media: 1.051
[2]; [6]
  Difference: −0.17

## CC[C@H](C)[C@H](NC(=O)[C@H](CCC(=O)O)NC(=O)[C@H](CO)NC(=O)[C@@H](NC(=O)[C@@H](N)CO)C(C)C)C(=O)N[C@@H](CCC(N)=O)C(=O)N[C@@H](CC(C)C)C(=O)N[C@@H](CCSC)C(=O)N[C@@H](Cc1cnc[nH]1)C(=O)N[C@@H](CC(N)=O)C(=O)N[C@@H](CC(C)C)C(=O)NCC(=O)N[C@@H](CCCCN)C(=O)N[C@@H](Cc1cnc[nH]1)C(=O)N[C@@H](CC(C)C)C(=O)N[C@@H](CC(N)=O)C(=O)N[C@@H](CO)C(=O)N[C@@H](CCSC)C(=O)N[C@@H](CCC(=O)O)C(=O)N[C@@H](CCCN=C(N)N)C(=O)N[C@H](C(=O)N[C@@H](CCC(=O)O)C(=O)N[C@@H](Cc1c[nH]c2ccccc12)C(=O)N[C@@H](CC(C)C)C(=O)N[C@@H](CCCN=C(N)N)C(=O)N[C@@H](CCCCN)C(=O)N[C@@H](CCCCN)C(=O)N[C@@H](CC(C)C)C(=O)N[C@@H](CCC(N)=O)C(=O)N[C@@H](CC(=O)O)C(=O)N[C@H](C(=O)N[C@@H](Cc1cnc[nH]1)C(=O)N[C@@H](CC(N)=O)C(=O)N[C@@H](Cc1ccccc1)C(=O)O)C(C)C)C(C)C [Teriparatide]
[1]; [11]
  Difference: −0.19
[1]; [12]
  Cholesterol-free: 1.061
[1]; [13]
  Complete: 0.8757
[2]; [14]
  Cholesterol-free media + simvastatin (0.04 μM): 1.048
[2]; [15]
  Complete Media: 1.02
[2]; complete media minus cholesterol-free media + simvastatin (0.04 μM), […]
  Difference: −0.03

## CC(=O)O[C@]1(C(C)=O)CC[C@H]2[C@@H]3C=C(C)C4=CC(=O)CC[C@@H]4[C@H]3CC[C@@]21C [Nomegestrol acetate]
[1]; [16]
  Difference: −0.14
[1]; [12]
  Cholesterol-free: 0.9161
[1]; [13]
  Complete: 0.7734
[2]; [14]
  Cholesterol-free media + simvastatin (0.04 μM): 0.9875
[2]; [15]
  Complete Media: 0.9519
[2]; complete media minus cholesterol-free media + simvastatin (0.04 μM), >0 enhanced anti-cancer activity, about 0 neutral, <0 antagonist
  Difference: −0.04

## CC1CCC(C(C)C)C(O)C1 (stereo not drawn) [Menthol]
[1]; [3]
  Cholesterol-free: 0.9443
[1]; [4]
  Complete: 1.129
[1]; [17]
  Difference: 0.19
[2]; [5]
  Cholesterol-free media + simvastatin (0.04 μM): 1.031
[2]; drug in complete media
  Complete Media: 0.8642
[2]; [6]
  Difference: −0.17

## C[C@H]1CNCCCN1S(=O)(=O)c1cccc2cncc(F)c12 [Ripasudil]
[1]; [3]
  Cholesterol-free: 0.6571
[1]; [4]
  Complete: 0.9065
[1]; [17]
  Difference: 0.25
[2]; [5]
  Cholesterol-free media + simvastatin (0.04 μM): 1.388
[2]; drug in complete media
  Complete Media: 1.177
[2]; [6]
  Difference: −0.21

## Cisatracurium (besylate)
[1]; [16]
  Difference: −0.15
[1]; [12]
  Cholesterol-free: 1.321
[1]; [13]
  Complete: 1.173
[2]; FDA drug library screen, cholesterol-free media with simvastatin 0.04 μM
  Cholesterol-free media + simvastatin (0.04 μM): 1.09
[2]; FDA drug library screen, complete media
  Complete Media: 1.349
[2]; complete media minus cholesterol-free media + simvastatin, >0 enhanced anti-cancer activity, about 0 neutral, <0 antagonist
  Difference: 0.26

## Nc1[nH]c(=O)ncc1F [Flucytosine]
[1]; [9]
  Cholesterol-free: 1.247
[1]; NCI-H292 cells, complete media
  Complete: 0.8456
[1]; [10]
  Difference: −0.40
[2]; [7]
  Cholesterol-free media + simvastatin (0.04 μM): 1.754
[2]; [8]
  Complete Media: 1.475
[2]; [6]
  Difference: −0.28

## C=CCC(C(=O)NC(N)=O)C(C)C (stereo not drawn) [Apronal]
[1]; [3]
  Cholesterol-free: 1.287
[1]; [4]
  Complete: 1.458
[1]; complete vs cholesterol-free media, […]
  Difference: 0.17
[2]; [5]
  Cholesterol-free media + simvastatin (0.04 μM): 1.688
[2]; drug in complete media
  Complete Media: 1.479
[2]; [18]
  Difference: −0.21

## Nc1ccc(C(=O)[O-])c(O)c1.O.O.[Na+] [Sodium 4-aminosalicylate (dihydrate)]
[1]; [11]
  Difference: −0.15
[1]; [12]
  Cholesterol-free: 1.093
[1]; [13]
  Complete: 0.9477
[2]; [7]
  Cholesterol-free media + simvastatin (0.04 μM): 1.473
[2]; [8]
  Complete Media: 1.188
[2]; [18]
  Difference: −0.29
